The text below walks through data of patent publication US7220580B2, “Sphingosine 1-phosphate receptor gene, sppr” (University of South Florida, priority 2000, dated 2007).

In assay [1] the target is T1, S1P5 (Homo sapiens, UniProt Q9H228).
T1 construct: The largest PCR product contains a complete open reading frame; expressed in transfected cells; host or cells: HEK293
In words: Erk2 kinase assay in HEK293 cells transiently transfected with S1P5. It is filed as cell-based. Conditions: HEK293 cells transiently transfected with S1P5 and HA-Erk2, 1 μM ligand for 5 min, MBP as substrate. The procedure:
Vector plasmid is added to each transfection reaction to equalize the amount of total DNA (2.1 μg). […] HA-ERK2 is immunoprecipitated from one half of each whole cell lysate and used for measuring the kinase activity utilizing MBP as substrate, while HA-ERK2 immunoprecipitated from the other half is used for determining the amount of ERK2 protein in the immune complex. FIG. 10 illustrates a representative autoradiogram of ^32P incorporation into MBP catalyzed by HA-ERK 2 immunoprecipitated from transiently transfected cells treated as indicated. […] Cell Culture and Transfection. HEK293 cells are grown in Dulbecco's modified eagle's medium supplemented with 10% fetal bovine serum. The cells are transiently transfected with a plasmid encoding HA-tagged Erk2 (HA-Erk2) and either pcDNA 3 S1P5 or pcDNA 3.1. Transfection is achieved by incubating the cells in 60 mm plates with plasmid/Lipofectamine complexes (2.1 μg total DNA/12 μl Lipofectamine) in serum-free medium for 5 hours. The DNA complexes are removed from the medium and the cells are starved overnight in serum-free medium and then used for experimentation. Erk2 Kinase Assay. […] The cells are lysed in buffer containing 50 mM Tris-HC1 pH 7.5, 150 mM NaCl, 1 mM EDTA, 1 mM EGTA, 1 mM DTT, 1% Triton X-100, 25 mM NaF, 5 mM sodium pyrophosphate, 20 mM ρ-nitrophenyl phosphate, 2 μg/mL leupeptin, and 100 μg/mL phenylmethylsulfonyl fluoride. HA-Erk2 is immunoprecipitated with the monoclonal antibody HA.11 (Convance, Richmond, Calif.). […] The reaction is terminated with SDS-containing gel-loading buffer and the reaction mixtures are analyzed on 11% SDS-polyacrylamide gels. The gels are processed by autoradiography. The bands on the gels are quantitated with a PhosphorImager. Erk2 protein in the immunoprecipitate is determined by immunoblotting with a polyclonal antibody to Erk2.

Assay [2] deals with T2, EDG-8 (Rattus norvegicus, UniProt Q9JKM5).
T2 construct: host or cells: CHO cells
T2 sequence (Q9JKM5 whole entry): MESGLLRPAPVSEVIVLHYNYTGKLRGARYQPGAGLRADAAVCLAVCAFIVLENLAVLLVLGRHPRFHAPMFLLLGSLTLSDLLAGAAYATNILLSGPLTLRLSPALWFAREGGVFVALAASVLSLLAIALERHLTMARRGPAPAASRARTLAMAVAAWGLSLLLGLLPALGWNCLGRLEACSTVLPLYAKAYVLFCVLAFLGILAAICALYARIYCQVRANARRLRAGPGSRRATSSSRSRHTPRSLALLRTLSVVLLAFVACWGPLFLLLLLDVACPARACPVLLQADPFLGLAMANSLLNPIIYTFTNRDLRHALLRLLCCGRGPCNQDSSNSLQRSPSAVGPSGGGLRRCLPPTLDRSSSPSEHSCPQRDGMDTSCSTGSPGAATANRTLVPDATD
Conditions: CHO cells expressing EDG-8; cited from earlier work.

The target in assay [3] is T2, EDG-8. Conditions: CHO cells expressing EDG-8; cited from earlier work. This is another data set of the same source.

T1 sequence (Q9H228 whole entry): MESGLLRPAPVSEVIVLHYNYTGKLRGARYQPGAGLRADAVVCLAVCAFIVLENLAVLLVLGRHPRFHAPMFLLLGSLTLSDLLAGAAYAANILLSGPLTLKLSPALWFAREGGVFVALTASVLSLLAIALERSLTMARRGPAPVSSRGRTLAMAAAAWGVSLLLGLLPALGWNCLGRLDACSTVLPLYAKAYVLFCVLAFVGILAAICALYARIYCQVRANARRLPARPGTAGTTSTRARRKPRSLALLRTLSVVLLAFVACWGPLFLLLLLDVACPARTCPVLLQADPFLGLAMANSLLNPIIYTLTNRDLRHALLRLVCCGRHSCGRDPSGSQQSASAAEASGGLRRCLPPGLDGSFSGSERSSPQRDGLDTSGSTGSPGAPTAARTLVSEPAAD

lysophosphatidic acid [LPA]: the “activation of Erk2 activity” value is “not” in assay [1] and “does not” in assay [1] (listed as lysophosphatidic acid).

Turning to `CCCCCCCCCCCCC/C=C/[C@@H](O)[C@@H](N)COP(=O)(O)O` [S1P, sphingosine-1-phosphate], the “activation of Erk2 activity” value in assay [1] is “activates Erk2”; in assay [1] (listed as sphingosine-1-phosphate), “activation of Erk2 activity”. Further, in assay [2], the “serum-induced activation of Erk1/2” value is “inhibited”. The cell proliferation result in assay [3] is on record as “inhibits the cell proliferation”.
